Experimental data taken from patent US20250002854A1, “METHODS OF GENERATING POPULATIONS OF TUMOUR-INFILTRATING T CELLS” (LYTIX BIOPHARMA AS, priority 2016, published 2025).
Square brackets hold non-standard residues; d marks the D form. Ends that are not written are not given here. Dip = N[C@H](C(=O)O)C(c1ccccc1)c1ccccc1

Legend:
[1] = system: B16F1 cells; assay: Release of ATP (luciferin-luciferase); assay type: cell-based, murine; details: 54 μM, up to 120 min
Description: Serum-free RPMI 1640 treated cells functioned as a negative and blank control, respectively. Extracellular levels of ATP were measured at the end of the experiment using a luciferin-based ENLITEN ATP Assay kit (Promega, Madison, WI, USA), in which ATP-driven chemoluminescence was recorded on a Luminescence Microplate Reader (Labsystems Luminoskan®, Finland), and expressed as relative light units (RLU).

[2] = system: B16F1 cells; assay: TEM electron microscopy of B16F1 cells; assay type: cell-based, murine; details: 108 μM
Description: B16F1 cells were seeded in 35 mm sterile tissue culture dishes at a density of 1×10^4 cells in a volume of 2 ml of culture media, and left to adhere and grow in a cell incubator at 37° C., >95% humidity and 5% CO2 conditions. When cultured cells reached an acceptable confluence (˜80-90%), they were incubated with the 4×IC50^4h value of LTX-401 (108 μM) for different time points (5, 15, 30 and 60 minutes) and subsequently fixed in a PHEM buffered (0.1 M) solution containing 0.05% malachite green oxalate (Sigma), 0.5% glutaraldehyde (GA, Electron Microscopy Sciences) and 4% formaldehyde (FA, Electron Microscopy Sciences). Malachite green is more frequently being used as an additive to primary fixation in order to reduce lipid extraction commonly associated with sample processing. Samples were immediately loaded and processed en bloc using the PELCO Biowave Pro Laboratory Microwave (Ted Pella, Inc.), a newly introduced method considered to be advantageous over conventional bench protocols, since it reduces sample preparation from days to hours. For all microwave steps, samples were microwaved at 23° C. with a 50° C. cut-out temperature. Both malachite green/GA/FA and osmium-reduced ferrocyanide (0.8% K3Fe (CN)6/1% OsO4) fixation steps were run in “power on/off” cycles of 2 minutes on, 2 minutes off (100 W), with vacuum.
Samples were rinsed four times with 0.1 M PHEM buffer between each step (two bench rinses and two final rinses for 40 seconds at 250 W) before being stained with 1% tannic acid (Electron Microscopy Sciences, PA, USA) and 1% aqueous uranyl acetate (Electron Microscopy Sciences, PA, USA) under “power on/off” cycles of 1 minute on, 1 minute off (150 W), with vacuum. Samples were rinsed as previously described between each staining procedure, in addition to being microwaved twice in water at 250 W (vacuum off). […]

[3] = system: A375 cells; assay: Release of HMGB1 (Western blot); assay type: cell-based, human; details: 35 μM, up to 60 min
Description: A375 cells were seeded with 3×10^5 cells/well in 6-well plates in a complete media, and allowed to adhere overnight. Cells were treated with LTX-315 or LTX-328 at 35 μM, and incubated at 37° C. and 5% CO2 for different time points (5, 10, 15, 30, 60 min), and negative controls were serum-free RPMI-1650. Supernatants (S) were collected and centrifuged at 1,400 g for five minutes, and cell lysates (L) were harvested after washing with PBS twice and then subsequently lysed using a 4×Sample buffer (Invitrogen, number), 0.1 M DTT (Sigma number) and water. Supernatants were concentrated using Amicon Ultra 50 K centrifugal filters (Millipore UFC505024), and the cell lysate was sonicated. Both supernatants and lysate were boiled and resolved in a 10% sodium dodecyl sulfate polyacrylamide gel electrophoresis (SDS-PAGE), and then electro transferred to a polyvindiline difluoride (PVDF) membrane (Millipore). The membrane was blocked in 5% milk and incubated with the HMGB1 antibody (rabbit, polyclonal, abcam ab 18256); the membrane was then rinsed several times with TBST, incubated with a horseradish peroxidase (HRP)-conjugated secondary antibody (abcam ab6721), rinsed again with TBST and then developed using WB Luminol Reagent (Santa Cruz Biotechnology, Heidelberg, Germany).

[4] = system: rat transformed mesenchymal stem cell-derived sarcoma (rTMSC); assay: Immunohistochemistry of rat rTMSC tumours; assay type: in vivo; details: primary and secondary tumor tissues
Description: Pre-cultured rat transformed mesenchymal stem cell-derived sarcoma model cells (rTMSCs) were harvested in serum free RPMI-1640 and 200,000 rTMSCs were subcutaneously inoculated in the right flank into PVG rats on day ÷2 and 20,000 rTMSCs in the opposite flank on day 0. Established tumours (25 mm^2 mean tumour size) were injected intralesionally with LTX-315 (dissolved in sterile H2O with 0.9% NaC ) (n=8) or with vehicle (sterile H2O with 0.9% NaCl) (n=6). Treatment doses of LTX-315, 50 μl at […] (1 mg), were given using a 1 ml syringe (Myjector U-100, Terumo) needle 0.5×16 mm (Fine-Ject; Henke-Sass, Wolf GmbH. Injections were provided daily for three subsequent days. Tumour size was measured three times a week using a caliper and expressed as the area of an ellipse [(maximum dimension/2)×(minimum dimension/2)]. Animals were terminated when the tumor exceeded 400 mm^2.
Formalin-fixed and paraffin-embedded tissue sections were deparaffinized in xylene and graded alcohols, hydrated and washed in PBS. After antigen retrieval in sodium citrate buffer (pH 6) in a microwave oven, the endogenous peroxidase was blocked by 0.3% H2O2 for 15 min. Sections were incubated overnight at 4° C. with primary antibody; rabbit polyclonal anti-CD3 (clone A0452 Dako) or mouse monoclonal anti-CD8 (clone OX8, ab33786, Abcam). […]

[5] = system: A375 cells; assay: Release of cytochrome-C (ELISA); assay type: cell-based, human; details: 35 μM
Description: A375 cells were seeded as with HMGB1 studies, and treated with 35 μM for different time points (5, 15, 45). Supernatants were collected and concentrated as with HMGB1 studies, and samples from the supernatants were analyzed using a 4.5 hour solid form Cytochrome C-Elisa kit (R&D Systems, USA, #DCTC0) following the manufacturer's description. Shortly thereafter, a 50% diluted sample was analyzed and the optical density was determined using a microplate reader set at 450 nm, and […]. A standard curve was generated for each set of samples assayed. Samples were run in four parallels, and the cytochrome-c released into the supernatant was expressed as a fold over the level of cytochrome-c in the supernatant of untreated cells.

[6] = system: human A547 cells; assay: TEM of A547 cells, mitochondrial membrane; assay type: cell-based; details: 10 μg/ml, 60 minutes

| Compound | extracellular concentration of ATP [1] | ultrastructural changes ([2]; 5 min) | ultrastructural changes ([2]; 60 minutes) | mode of cell killing ([2]; TEM) | HMGB1 translocation from cell lysate to supernatant [3] | infiltration of CD3+ and CD8+ cells (immunohistochemistry) [4] | cytochrome-C in the supernatant compared to untreated control cells [5] | effect on mitochondrial membrane [6] |
| --- | --- | --- | --- | --- | --- | --- | --- | --- |
| Cl.Cl.NCCNC(=O)C(CN)(CCCc1ccccc1)CCCc1ccccc1 [LTX-401] | quickly rose 60 min after initiating treatment | lost their surface morphology | Large portions of cells were necrotic | kills by a lytic mode of action |  |  |  |  |
| K-K-W-W-K-K-W-Dip-K-NH2 (KKWWKKW[Dip]K-NH2) [LTX-315] |  |  |  |  | gradual translocation from the cell lysate to the supernatant detected | increased infiltration of CD3^+ and CD8^+ cells | three times more | disintegration of the mitochondrial membrane |
